Measured values published in patent publication US20170280720A1, “ARGININE […] INHIBITORS AND USES THEREOF” (EPIZYME, INC., priority 2014, published 2017).

Legend:
Human CARM1 (PRMT4) = target: T1, Human CARM1 (PRMT4) (Homo sapiens, UniProt Q86X55); test: CARM1 biochemical assay (3H-SAM Flashplate, peptide substrate); conditions: read-out: CARM1_ IC50
T1 construct: Flag-CARM1-His; made in house; host or cells: HEK 293F cells (BacMam baculovirus, pFastBacMam)
T1 sequence (Q86X55 2-585 isoform Q86X55-1): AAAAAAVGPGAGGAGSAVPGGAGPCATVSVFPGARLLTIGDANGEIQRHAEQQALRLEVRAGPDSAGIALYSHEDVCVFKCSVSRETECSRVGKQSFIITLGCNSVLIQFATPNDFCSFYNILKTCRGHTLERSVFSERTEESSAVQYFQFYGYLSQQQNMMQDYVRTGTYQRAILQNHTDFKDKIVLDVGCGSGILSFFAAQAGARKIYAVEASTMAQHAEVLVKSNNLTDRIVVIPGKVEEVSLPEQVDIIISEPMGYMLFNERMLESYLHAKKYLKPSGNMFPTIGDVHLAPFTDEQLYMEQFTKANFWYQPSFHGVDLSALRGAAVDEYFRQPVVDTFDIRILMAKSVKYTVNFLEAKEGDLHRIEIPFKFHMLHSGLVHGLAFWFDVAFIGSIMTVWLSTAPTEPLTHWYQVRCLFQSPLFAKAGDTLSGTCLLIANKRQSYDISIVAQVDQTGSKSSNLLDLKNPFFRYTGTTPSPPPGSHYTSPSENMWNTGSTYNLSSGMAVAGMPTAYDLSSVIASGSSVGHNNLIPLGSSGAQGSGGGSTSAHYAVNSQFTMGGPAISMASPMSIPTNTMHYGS
Summary of the method: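 FLAG/His-tagged human CARM1 (isoform 1, Δ539-561, baculovirus-expressed), 0.25 nM, preincubated 30 min at room temperature with compound (2% DMSO) in 20 mM Bicine pH 7.6, then reacted with 30 nM 3H-SAM and 250 nM biotinylated H3 16-30 peptide (R26 monomethyl). Stopped with 300 uM cold SAM; labelled peptide captured on streptavidin Flashplate; % inhibition versus DMSO and 1 mM SAH controls fitted to a 4- or 3-parameter curve.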

[1] = test system: asymmetric di-methyl PABP1 in RKO cells; test: In Cell Western (ICW) for asymmetric di-methyl PABP1 and DNA content in RKO cells; type: cell-based; conditions: Homo sapiens, RKO, In Cell Western
Source text: RKO adherent cells were purchased from ATCC (American Type Culture Collection), Manassas, Va., USA. DMEM/Glutamax medium, penicillin-streptomycin, heat inactivated fetal bovine serum, 0.05% trypsin and D-PBS were purchased from Life Technologies, Grand Island, N.Y., USA. Odyssey blocking buffer, 800CW goat anti-rabbit IgG (H+L) antibody, and Licor Odyssey infrared scanner were purchased from Licor Biosciences, Lincoln, Nebr., USA. Mono-methyl arginine antibody was purchased from Cell Signaling Technology, Danvers, Mass., USA. Methanol was purchased from VWR, Franklin, Mass., USA. 10% Tween 20 was purchased from KPL, Inc., Gaithersburg, Md., USA. […] was purchased from Biostatus Limited, Leicestershire, UK. RKO adherent cells were maintained in growth medium (DMEM/Glutamax medium supplemented with 10% v/v heat inactivated fetal bovine serum and 100 units/mL penicillin-streptomycin) and cultured at 37° C. under 5% CO2. Cell Treatment, in Cell Western (ICW) for Detection of Asymmetric Di-Methyl PABP1 and DNA Content. RKO cells were seeded in assay medium at a concentration of 30,000 cells per mL to a poly-D-lysine coated 384 well culture plate (BD Biosciences 356697) with 50 μL per well. Compound (100 nL) from a 96-well source plate was added directly to 384 well cell plate. Plates were incubated at 37° C., 5% CO2 for 48 hours. After two days of incubation, plates were brought to room temperature outside of the incubator for ten minutes and blotted on paper towels to remove cell media. Cells were fixed for 20 minutes at room temperature by adding 50 μl of 8% PFA followed by aspiration of supernatant with the Biotek EL406 plate washer. Cells were then permeabilized by addition of 50 μL of ice cold 100% methanol directly to each well and incubated for 30 min at room temperature. After 30 min, plates were transferred to a Biotek EL406 plate washer and washed 2 times with 100 μL per well of wash buffer (1×PBS). Next 60 μL per well of Odyssey blocking buffer (Odyssey Buffer with 0.1% Tween 20 (v/v)) were added to each plate and incubated 1 hour at room temperature. Blocking buffer was removed and 20 μL per well of primary antibody was added (asymmetric-methyl PABP1) diluted 1:400 in Odyssey buffer with 0.1% Tween 20 (v/v)) and plates were incubated overnight (16 hours) at 4° C. Plates were washed 5 times with 100 μL per well of wash buffer. Next 20 μL per well of secondary antibody was added (1:800 800CW goat anti-rabbit IgG (H+L) antibody, 1:2000 DRAQS in Odyssey buffer with 0.1% Tween 20 (v/v)) and incubated for 1 hour at room temperature. The plates were washed 5 times with 100 μL per well wash buffer then 2 times with 100 μL per well of water. Plates were allowed to dry at room temperature then imaged on the Licor Odyssey machine which measures integrated intensity at 700 nm and 800 nm wavelengths. Both 700 and 800 channels were scanned. Calculations: First, the ratio for each well was determined by: Each plate included fourteen control wells of DMSO only treatment (minimum inhibition) as well as fourteen control wells for maximum inhibition treated with 20 μM of a reference compound. The average of the ratio values for each control type was calculated and used to determine the percent activation for each test well in the plate. Reference compound was serially diluted three-fold in DMSO for a total of nine test concentrations, beginning at 20 μM. Percent inhibition was determined and IC50 curves were generated using triplicate wells per concentration of compound.

| SMILES | IC50 (Human CARM1 (PRMT4)) [nM] | IC50 [1] [nM] |
| --- | --- | --- |
| CC(C)n1ncc2c(C(=O)NCC(F)(F)F)cc(-c3cccc(CN(C)CCN)c3)nc21 [Compound 222] | 34.4 | 3820 |
| CC(C)n1ncc2c(C(=O)N(C)Cc3cccnc3)cc(-c3cccc(CN(C)CCN)c3)nc21 [Compound 224] | 37.5 | 8470 |
| CCn1ncc2c(C(=O)NCC3CCOCC3)cc(-c3cccc(CN(C)CCNC)c3)nc21 [Compound 227] | 39.9 | 4740 |
| CCN(C)C(=O)c1cc(-c2cccc(CN(C)CCN)c2)nc2c1cnn2C(C)C [Compound 230] | 41.4 | 7630 |
| CNCCN(C)Cc1cccc(-c2cc(C(=O)NCc3cnc[nH]3)c3cnn(C(C)C)c3n2)c1 [Compound 231] | 42.2 | 20000 |
| CNCCN(C)Cc1cccc(-c2cc(C(=O)NCc3cccc4ccnn34)c3cnn(C(C)C)c3n2)c1 [Compound 232] | 42.4 | 1510 |
| CNCCN(C)Cc1cccc(-c2cc(-c3ccsc3)c3cnn(C(C)C)c3n2)c1 [Compound 235] | 45.8 | 20000 |
| CCCc1cc(-c2cccc(CN(C)CCNC)c2)nc2c1cnn2C(C)C [Compound 239] | 49 | 20000 |
| Cc1c(N(C)CC2CC2)cc(-c2cccc(CN(C)CCN)c2)cc1N1CCOCC1 [Compound 241] | 51 | 5690 |
| CN(CCN)Cc1cccc(-c2ccc(C(=O)NC3CCOCC3)c(N(C)CC3CC3)c2)c1 [Compound 245] | 53.6 | 20000 |
| CNCCN(C)Cc1cccc(-c2cc(-c3ccc(O)cc3)c3cnn(C(C)C)c3n2)c1 [Compound 247] | 54.7 | 20000 |
| CCn1ncc2c(C(=O)NC3CCOCC3)cc(-c3cccc(CN(C)CCNC)c3)nc21 [Compound 253] | 61.3 | 6090 |
| CCN(Cc1cccnc1)C(=O)c1cc(-c2cccc(CN(C)CCNC)c2)nc2c1cnn2C(C)C [Compound 254] | 61.8 | 5520 |
| CC(C)n1ncc2c(C(=O)NCc3cn(C)cn3)cc(-c3cccc(CN(C)CCN)c3)nc21 [Compound 262] | 70.2 | 10200 |
| CC(C)n1ncc2c(C(=O)N(C)C3CCOCC3)cc(-c3cccc(CN(C)CCN)c3)nc21 [Compound 265] | 74.4 | 10300 |
| CNCCN(C)Cc1cccc(-c2cc(C(=O)NC3CCOCC3)c3cnn(CC(F)(F)F)c3n2)c1 [Compound 270] | 81 | 5140 |
| CCNCCN(C)Cc1cccc(-c2cc(C(=O)NCC3CCOCC3)c3cnn(C(C)C)c3n2)c1 [Compound 271] | 81.4 | 20000 |
| CNCCN(C)Cc1cccc(-c2cc(-c3ccc(F)cc3)c3cnn(C(C)C)c3n2)c1 [Compound 275] | 92.8 | 20000 |
| CNCCN(C)Cc1cccc(-c2cc(C(=O)NCc3ccc(F)cc3)c3cnn(C(C)C)c3n2)c1 [Compound 276] | 94.1 | 20000 |
| CNCCN(C)Cc1cccc(-c2cc(C(=O)NCc3cncn3C)c3cnn(C(C)C)c3n2)c1 [Compound 280] | 113 | 9490 |
| CC(C)n1ncc2c(C(=O)N(C)Cc3ccccn3)cc(-c3cccc(CN(C)CCN)c3)nc21 [Compound 282] | 130 | 8200 |

More lines, in order of falling IC50 (Human CARM1 (PRMT4)), values ahead:

| IC50 (Human CARM1 (PRMT4)) [nM] | IC50 [1] [nM] | SMILES |
| --- | --- | --- |
| 113 | 18700 | CC(C)n1ncc2c(C(=O)N3CCOCC3)cc(-c3cccc(CN(C)CCN)c3)nc21 [Compound 279] |
| 105 | 7200 | CNCCN(C)Cc1cccc(-c2cc(C(=O)NCC3CCOCC3)c3cnn(CC(F)(F)F)c3n2)c1 [Compound 277] |
| 89.3 | 20000 | COC1CCN(C(=O)c2cc(-c3cccc(CN(C)CCN)c3)nc3c2cnn3C(C)C)C1 (centres unmarked) [Compound 274] |
| 87.7 | 14500 | CC(C)n1ncc2c(C(=O)NCC3CCOCC3)cc(-c3cccc(CN(C)CCNC4CCC4)c3)nc21 [Compound 273] |
| 84.8 | 20000 | CC(C)n1ncc2c(C(=O)N3CCN(C)C(=O)C3)cc(-c3cccc(CN(C)CCN)c3)nc21 [Compound 272] |
| 69.4 | 20000 | CC(C)n1ncc2c(C(=O)N3CCC(F)(F)C3)cc(-c3cccc(CN(C)CCN)c3)nc21 [Compound 261] |
| 68.2 | 20000 | CNCCN(C)Cc1cccc(-c2cc(C(=O)N[C@@H](C)c3ccccc3)c3cnn(Cc4ccncc4)c3n2)c1 [Compound 260] |
| 67 | 20000 | CNCCN(C)Cc1cccc(-c2cc(C(=O)NCc3cccc(F)c3)c3cnn(C(C)C)c3n2)c1 [Compound 259] |
| 64.2 | 18500 | CC(C)n1ncc2c(C(=O)N3CCSCC3)cc(-c3cccc(CN(C)CCN)c3)nc21 [Compound 258] |
| 63.5 | 10300 | CC(C)n1ncc2c(C(=O)N3CCC(F)C3)cc(-c3cccc(CN(C)CCN)c3)nc21 (centres unmarked) [Compound 257] |
| 62.3 | 3870 | CCNC(=O)c1cc(-c2cccc(CN(C)CCNC)c2)nc2c1cnn2C(C)C [Compound 255] |
| 59.3 | 20000 | CNCCN(C)Cc1cccc(-c2cc(C(=O)N3CCC3)c3cnn(C(C)C)c3n2)c1 [Compound 252] |
| 52 | 20000 | Cc1c(C(=O)NC2CCOCC2)cc(-c2cccc(CN(C)CCN)c2)cc1N(C)CC1CC1 [Compound 243] |
| 48.1 | 20000 | CC(C)n1ncc2c(C(=O)N(C)Cc3ccccc3)cc(-c3cccc(CNCCN)c3)nc21 [Compound 238] |
| 43.3 | 2760 | CNCCN(C)Cc1cccc(-c2cc(C(=O)NC3CCOC3)c3cnn(C(C)C)c3n2)c1 (centres unmarked) [Compound 234] |
| 42.6 | 843 | CNCCN(C)Cc1cccc(-c2cc(C(=O)NC3CCOCC3)c3cnn(C(C)C)c3n2)c1 [Compound 233, 1-isopropyl-6-(3-((methyl(2-(methylamino)ethyl)amino)methyl)phenyl)-N-(tetrahydro-2H-pyran-4-yl)-1H-pyrazolo[3,4-b]pyridine-4-carboxamide] |
| 41.2 | 1910 | CNCCN(C)Cc1cccc(-c2cc(C(=O)NC3CC3)c3cnn(C(C)C)c3n2)c1 [Compound 228] |
| 35.3 | 3470 | CNCCN(C)Cc1cccc(-c2cc(C(=O)NCc3cn(C)cn3)c3cnn(C(C)C)c3n2)c1 [Compound 223] |
| 32.5 | 1240 | CC(C)n1ncc2c(C(=O)NCc3ccn(C)n3)cc(-c3cccc(CN(C)CCN)c3)nc21 [Compound 220] |
